From the supplement of paper PMC10307832

Experiments:
Test in all cases: relative viability (nuclei count vs DMSO), 5 days (fraction); higher = more cells survive
AT-7519 + Olaparib = compound: O=C(NC1CCNCC1)c1n[nH]cc1NC(=O)c1c(Cl)cccc1Cl [AT-7519] + O=C(c1cc(Cc2n[nH]c(=O)c3ccccc23)ccc1F)N1CCN(C(=O)C2CC2)CC1 [Olaparib] (partner 8 µM)
How it was run: (§1)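 Relative viability is defined as nuclei in treated wells over nuclei in vehicle wells. Duplicate plates were run and medians reported. Lung cancer cell lines in 1536-well plates were dosed by pin tool one day after seeding, with one drug or with a fixed anchor-drug dose plus five library-drug doses (not always all listed) in √10 steps, and nuclei were counted after 5 days.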

AT-7519 + OSI-027 = compound: O=C(NC1CCNCC1)c1n[nH]cc1NC(=O)c1c(Cl)cccc1Cl [AT-7519] + COc1cccc2cc(-c3nc([C@H]4CC[C@H](C(=O)O)CC4)n4ncnc(N)c34)[nH]c12 [OSI-027] (partner 0.5 µM)
How it was run: as §1

[1] = compound: C1=CC2=C(C=C(C(=C2N=C1)O)N=NC3=CC4=C(C=C3)C=C(C=C4)S(=O)(=O)O)S(=O)(=O)O + Nc1nc2[nH]cc(CCc3ccc(C(=O)N[C@@H](CCC(=O)O)C(=O)O)cc3)c2c(=O)[nH]1 [Pemetrexed] (partner 0.2 µM)
How it was run: as §1

AT-7519 + Decitabine = compound: O=C(NC1CCNCC1)c1n[nH]cc1NC(=O)c1c(Cl)cccc1Cl [AT-7519] + Nc1ncn([C@H]2C[C@H](O)[C@@H](CO)O2)c(=O)n1 [Decitabine] (partner 2 µM)
How it was run: as §1

| Cell Line | relative viability (AT-7519 + Olaparib; first compound 0.01 µM) | relative viability (AT-7519 + Olaparib; first compound 0.03162 µM) | relative viability (AT-7519 + Olaparib; first compound 0.3162 µM) | relative viability (AT-7519 + Olaparib; first compound 1 µM) | relative viability (AT-7519 + OSI-027; first compound 0.01 µM) | relative viability (AT-7519 + OSI-027; first compound 0.03162 µM) | relative viability (AT-7519 + OSI-027; first compound 0.3162 µM) | relative viability (AT-7519 + OSI-027; first compound 1 µM) | relative viability ([1]; first compound 0.08 µM) | relative viability ([1]; first compound 0.253 µM) | relative viability ([1]; first compound 0.8 µM) | relative viability ([1]; first compound 2.53 µM) | relative viability ([1]; first compound 8 µM) | relative viability (AT-7519 + Decitabine; first compound 0.01 µM) | relative viability (AT-7519 + Decitabine; first compound 0.03162 µM) | relative viability (AT-7519 + Decitabine; first compound 0.3162 µM) | relative viability (AT-7519 + Decitabine; first compound 1 µM) |
| --- | --- | --- | --- | --- | --- | --- | --- | --- | --- | --- | --- | --- | --- | --- | --- | --- | --- |
| HOP-62 | 0.558 | 0.248 | 0.189 | 0.373 | 0.857 | 0.675 | 0.846 | 0.809 | 0.263 | 0.279 | 0.312 | 0.349 | 0.325 | 0.224 | 0.203 | 0.217 | 0.23 |
| NCI-H520 | 0.341 | 0.315 | 0.287 | 0.201 | 0.254 | 0.285 | 0.26 | 0.241 | 0.696 | 0.706 | 0.637 | 0.715 | 0.692 | 0.547 | 0.492 | 0.507 | 0.395 |
| NCI-H1755 | 0.946 | 0.957 | 0.949 | 0.854 | 0.66 | 0.655 | 0.705 | 0.699 | 0.526 | 0.418 | 0.459 | 0.489 | 0.425 | 0.724 | 0.721 | 0.825 | 0.716 |
| NCI-H2023 | 0.46 | 0.485 | 0.386 | 0.128 | 0.435 | 0.347 | 0.351 | 0.203 | 0.205 | 0.223 | 0.265 | 0.256 | 0.14 | 0.201 | 0.234 | 0.209 | 0.125 |
| NCI-H2009 | 0.663 | 0.697 | 0.61 | 0.707 | 0.638 | 0.665 | 0.587 | 0.321 | 1.07 | 1.05 | 0.89 | 1.04 | 0.988 | 0.395 | 0.406 | 0.446 | 0.309 |
